Test results reported in ChEMBL document CHEMBL1909046, “DrugMatrix in vitro pharmacology data”.

What was measured:
[1] = molecular target: Mitogen-activated protein kinase 1 (Homo sapiens, UniProt P28482); experiment: DRUGMATRIX: Protein Serine/Threonine Kinase, ERK2 enzyme inhibition (substrate: Myelin Basic Protein); design: species or system Escherichia coli; details: Not Active = under 50% inhibition at 10 µM
[2] = DRUGMATRIX: ATPase, Na+/K+ enzyme inhibition (substrate: ATP); type: tissue-based, Sus scrofa, Heart; details: Not Active = under 50% inhibition at 10 µM
[3] = molecular target: T1, Receptor-type tyrosine-protein phosphatase C (Homo sapiens, UniProt P08575); design: species or system Escherichia coli;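 further: inhibition of CD45 enzyme activity measured using DiFMUP as substrate; in other assays of this panel Not Active means under 50% inhibition at 10 µM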
T1 sequence (P08575 whole entry): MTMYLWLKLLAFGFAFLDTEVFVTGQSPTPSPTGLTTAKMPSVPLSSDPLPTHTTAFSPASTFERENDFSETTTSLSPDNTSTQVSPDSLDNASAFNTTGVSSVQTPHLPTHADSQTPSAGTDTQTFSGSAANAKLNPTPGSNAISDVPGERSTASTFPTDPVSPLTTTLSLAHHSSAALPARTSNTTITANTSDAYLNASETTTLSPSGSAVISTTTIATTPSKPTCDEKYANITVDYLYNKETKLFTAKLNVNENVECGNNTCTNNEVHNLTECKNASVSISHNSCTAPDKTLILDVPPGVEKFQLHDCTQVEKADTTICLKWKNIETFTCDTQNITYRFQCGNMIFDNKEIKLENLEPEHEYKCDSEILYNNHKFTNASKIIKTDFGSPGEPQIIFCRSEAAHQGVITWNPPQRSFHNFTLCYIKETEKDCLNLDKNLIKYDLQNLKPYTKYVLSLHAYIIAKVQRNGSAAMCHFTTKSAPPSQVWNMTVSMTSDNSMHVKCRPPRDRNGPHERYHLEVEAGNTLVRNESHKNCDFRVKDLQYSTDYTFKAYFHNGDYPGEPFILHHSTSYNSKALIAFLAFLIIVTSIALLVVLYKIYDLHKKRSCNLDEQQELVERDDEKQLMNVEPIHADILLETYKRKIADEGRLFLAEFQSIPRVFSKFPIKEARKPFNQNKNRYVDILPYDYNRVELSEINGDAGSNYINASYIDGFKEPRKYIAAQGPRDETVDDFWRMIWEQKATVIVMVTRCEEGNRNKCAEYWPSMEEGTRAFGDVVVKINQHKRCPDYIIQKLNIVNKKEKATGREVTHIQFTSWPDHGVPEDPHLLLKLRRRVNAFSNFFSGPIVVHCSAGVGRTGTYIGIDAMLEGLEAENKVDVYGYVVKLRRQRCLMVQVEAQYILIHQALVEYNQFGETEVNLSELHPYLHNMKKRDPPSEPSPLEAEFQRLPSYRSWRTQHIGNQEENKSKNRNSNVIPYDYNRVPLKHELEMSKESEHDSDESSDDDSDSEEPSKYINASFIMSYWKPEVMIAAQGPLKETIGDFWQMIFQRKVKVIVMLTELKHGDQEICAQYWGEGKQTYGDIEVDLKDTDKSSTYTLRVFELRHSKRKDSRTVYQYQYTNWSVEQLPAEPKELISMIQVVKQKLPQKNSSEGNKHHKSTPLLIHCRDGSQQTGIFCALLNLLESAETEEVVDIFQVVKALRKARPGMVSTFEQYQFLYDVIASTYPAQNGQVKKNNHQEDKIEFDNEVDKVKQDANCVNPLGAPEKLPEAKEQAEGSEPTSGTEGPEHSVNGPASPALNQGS

[4] = DRUGMATRIX: beta-Lactamase enzyme inhibition (substrate: Nitrocefin); design: species or system Bacillus cereus; details: Not Active = under 50% inhibition at 10 µM
Cytochrome P450 2C19 = Cytochrome P450 2C19 (Homo sapiens, UniProt P33261); details: bti-tn-5b1-4; further: in other assays of this panel Not Active means under 50% inhibition at 10 µM
Sequence of Cytochrome P450 2C19 (P33261 whole entry): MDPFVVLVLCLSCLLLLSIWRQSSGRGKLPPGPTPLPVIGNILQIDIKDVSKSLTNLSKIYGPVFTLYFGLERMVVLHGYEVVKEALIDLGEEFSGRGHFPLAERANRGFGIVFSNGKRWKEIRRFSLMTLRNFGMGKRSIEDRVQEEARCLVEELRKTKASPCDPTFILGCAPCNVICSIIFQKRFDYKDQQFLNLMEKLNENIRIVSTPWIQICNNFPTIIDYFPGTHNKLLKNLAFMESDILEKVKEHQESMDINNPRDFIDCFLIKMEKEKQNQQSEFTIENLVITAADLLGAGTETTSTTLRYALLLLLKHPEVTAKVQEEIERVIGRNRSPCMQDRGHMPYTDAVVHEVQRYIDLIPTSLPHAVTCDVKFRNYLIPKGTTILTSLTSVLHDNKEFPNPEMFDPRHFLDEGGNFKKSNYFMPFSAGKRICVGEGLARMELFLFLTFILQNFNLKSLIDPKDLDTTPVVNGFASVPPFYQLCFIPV

[5] = molecular target: T2, Vasoactive intestinal polypeptide receptor 1 (Homo sapiens, UniProt P32241); type: cell membranes, Membrane; details: ht-29; further: in other assays of this panel Not Active means under 50% inhibition at 10 µM
T2 sequence (P32241 whole entry): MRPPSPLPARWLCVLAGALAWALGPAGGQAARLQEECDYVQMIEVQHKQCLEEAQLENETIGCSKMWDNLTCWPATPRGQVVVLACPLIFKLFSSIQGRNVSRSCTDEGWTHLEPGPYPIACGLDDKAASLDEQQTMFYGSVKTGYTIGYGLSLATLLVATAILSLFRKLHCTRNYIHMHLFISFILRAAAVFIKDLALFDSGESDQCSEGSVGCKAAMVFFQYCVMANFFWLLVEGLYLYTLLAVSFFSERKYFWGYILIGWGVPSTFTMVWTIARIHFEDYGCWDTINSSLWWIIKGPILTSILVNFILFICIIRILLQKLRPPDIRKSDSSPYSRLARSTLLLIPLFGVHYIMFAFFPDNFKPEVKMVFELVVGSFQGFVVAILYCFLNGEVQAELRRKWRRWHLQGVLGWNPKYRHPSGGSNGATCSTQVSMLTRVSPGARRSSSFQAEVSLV

[6] = molecular target: Beta-3 adrenergic receptor (Homo sapiens, UniProt P13945); experiment: DRUGMATRIX: Adrenergic beta3 radioligand binding (ligand: [125I] Cyanopindolol); type: cell membranes, HEK293, Membrane; details: hek293; Not Active = under 50% inhibition at 10 µM
Sequence of Beta-3 adrenergic receptor (P13945 whole entry): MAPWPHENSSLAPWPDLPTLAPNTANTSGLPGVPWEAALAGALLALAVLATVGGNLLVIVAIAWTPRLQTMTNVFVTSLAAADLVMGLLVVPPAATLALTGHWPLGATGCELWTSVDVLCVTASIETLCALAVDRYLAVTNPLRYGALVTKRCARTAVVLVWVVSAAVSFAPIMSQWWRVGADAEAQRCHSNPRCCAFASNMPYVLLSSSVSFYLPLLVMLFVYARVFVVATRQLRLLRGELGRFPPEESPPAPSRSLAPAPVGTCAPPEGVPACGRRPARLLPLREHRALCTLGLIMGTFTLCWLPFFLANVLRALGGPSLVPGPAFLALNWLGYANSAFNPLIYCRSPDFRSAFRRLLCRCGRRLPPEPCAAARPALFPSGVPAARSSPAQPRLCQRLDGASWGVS

[7] = DRUGMATRIX: Platelet-Derived Growth Factor (PDGF) radioligand binding (ligand: [125I] PDGF); type: cell-based; details: nih3t3; Not Active = under 50% inhibition at 10 µM

Sequence of Mitogen-activated protein kinase 1 (P28482 whole entry): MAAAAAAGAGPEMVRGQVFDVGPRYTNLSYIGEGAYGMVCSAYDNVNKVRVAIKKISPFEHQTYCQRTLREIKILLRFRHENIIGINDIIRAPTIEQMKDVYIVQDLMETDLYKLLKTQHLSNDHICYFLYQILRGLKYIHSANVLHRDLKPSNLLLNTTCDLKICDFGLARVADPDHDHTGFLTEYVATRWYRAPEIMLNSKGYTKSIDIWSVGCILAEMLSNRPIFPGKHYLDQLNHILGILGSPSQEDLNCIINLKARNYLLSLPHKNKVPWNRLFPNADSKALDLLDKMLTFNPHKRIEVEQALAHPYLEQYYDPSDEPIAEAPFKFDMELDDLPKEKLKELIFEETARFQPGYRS

Molecule: COc1cc(N)nc2[nH]c(-c3ccc(F)cc3)c(-c3ccncc3)c12
- IC50 [1]: Not Active
- IC50 [2]: Not Active
- Ki [2]: Not Active
- IC50 [3]: Not Active
- IC50 [4]: Not Active
- Ki [4]: Not Active
- IC50 (Cytochrome P450 2C19): Not Active
- Ki (Cytochrome P450 2C19): Not Active
- IC50 [5]: Not Active
- IC50 [6]: Not Active
- IC50 [7]: Not Active
- Ki [7]: Not Active

Molecule: CN(CCOc1ccc(CC2SC(=O)NC2=O)cc1)c1ccccn1 (configuration not stated) [ROSIGLITAZONE]
- IC50 [1]: Not Active
- IC50 [2]: Not Active
- Ki [2]: Not Active
- IC50 [3]: Not Active
- IC50 [4]: Not Active
- Ki [4]: Not Active
- IC50 (Cytochrome P450 2C19): Not Active
- Ki (Cytochrome P450 2C19): Not Active
- IC50 [5]: Not Active
- IC50 [6]: Not Active
- IC50 [7]: Not Active
- Ki [7]: Not Active

Molecule: O=C(O)C(Cl)(Cl)Cl [TRICHLOROACETIC ACID]
- IC50 [1]: Not Active
- IC50 [2]: Not Active
- Ki [2]: Not Active
- IC50 [3]: Not Active
- IC50 [4]: Not Active
- Ki [4]: Not Active
- IC50 (Cytochrome P450 2C19): Not Active
- Ki (Cytochrome P450 2C19): Not Active
- IC50 [5]: Not Active
- IC50 [6]: Not Active
- IC50 [7]: Not Active
- Ki [7]: Not Active

Molecule: CNS(=O)(=O)Cc1ccc2[nH]cc(CCN(C)C)c2c1
- IC50 [1]: Not Active
- IC50 [2]: Not Active
- Ki [2]: Not Active
- IC50 [3]: Not Active
- IC50 [4]: Not Active
- Ki [4]: Not Active
- IC50 (Cytochrome P450 2C19): Not Active
- Ki (Cytochrome P450 2C19): Not Active
- IC50 [5]: Not Active
- IC50 [6]: Not Active
- IC50 [7]: Not Active
- Ki [7]: Not Active

Molecule: CCCc1nn(C)c2c(=O)[nH]c(-c3cc(S(=O)(=O)N4CCN(C)CC4)ccc3OCC)nc12
- IC50 [1]: Not Active
- IC50 [2]: Not Active
- Ki [2]: Not Active
- IC50 [3]: Not Active
- IC50 [4]: Not Active
- Ki [4]: Not Active
- IC50 (Cytochrome P450 2C19): Not Active
- Ki (Cytochrome P450 2C19): Not Active
- IC50 [5]: Not Active
- IC50 [6]: Not Active
- IC50 [7]: Not Active
- Ki [7]: Not Active

Molecule: COc1cc(C(=O)NS(=O)(=O)c2ccccc2C)ccc1Cc1cn(C)c2ccc(NC(=O)OC3CCCC3)cc12 [ZAFIRLUKAST]
- IC50 ([1]; read-out: IC50): 538 nM
- IC50 [2]: Not Active
- Ki [2]: Not Active
- IC50 [3]: Not Active
- IC50 [4]: Not Active
- Ki [4]: Not Active
- IC50 (Cytochrome P450 2C19): Not Active
- Ki (Cytochrome P450 2C19): Not Active
- IC50 [5]: Not Active
- IC50 [6]: Not Active
- IC50 [7]: Not Active
- Ki [7]: Not Active

Molecule: STANNOUS FLUORIDE
- IC50 [1]: Not Active
- Ki [1]: Not Active
- IC50 [2]: Not Active
- Ki [2]: Not Active
- IC50 [3]: Not Active
- Ki [3]: Not Active
- IC50 [4]: Not Active
- Ki [4]: Not Active
- IC50 (Cytochrome P450 2C19): Not Active
- Ki (Cytochrome P450 2C19): Not Active
- IC50 [5]: Not Active
- Ki [5]: Not Active
- IC50 [6]: Not Active
- Ki [6]: Not Active
- IC50 [7]: Not Active
- Ki [7]: Not Active

Molecule: C[C@]12CC[C@H]3[C@@H](CCC4=CC(=O)CC[C@@]43C)[C@@H]1CC[C@@H]2O [TESTOSTERONE]
- IC50 [1]: Not Active
- IC50 [2]: Not Active
- Ki [2]: Not Active
- IC50 [3]: Not Active
- IC50 [4]: Not Active
- Ki [4]: Not Active
- IC50 (Cytochrome P450 2C19): Not Active
- Ki (Cytochrome P450 2C19): Not Active
- IC50 [5]: Not Active
- IC50 [6]: Not Active
- IC50 [7]: Not Active
- Ki [7]: Not Active

Molecule: COc1ccc(/C=C/C(=O)Nc2ccccc2C(=O)O)cc1OC
- IC50 [1]: Not Active
- IC50 [2]: Not Active
- Ki [2]: Not Active
- IC50 [3]: Not Active
- IC50 [4]: Not Active
- Ki [4]: Not Active
- IC50 (Cytochrome P450 2C19): Not Active
- Ki (Cytochrome P450 2C19): Not Active
- IC50 [5]: Not Active
- IC50 [6]: Not Active
- IC50 [7]: Not Active
- Ki [7]: Not Active
